In patent EP0265388A1, “Pyrrole derivatives, therapeutic compositions containing them and their use” (CIBA-GEIGY AG, priority 1986, dated 1988):

Key:
[1] = Geller test (foot-shock induced conflict, lever pressing for food); type: in vivo, Ratten; details: for anxiolytische Wirkung im Geller-Test: overall assessment
Excerpt: Das charakteristische anxiolytische Profil von (+)-1-Isopropylamino-3-[o-(pyrrol-1-yl)-phenoxy]-2-propanol ergibt sich beispielsweise aus den Ergebnissen des Geller-Testes, [J. Geller. Psychopharmacologia, 3, S. 374 ff. […] Bei diesem Test werden die Füsse der Verscuchstiere beim Bedienen eines Hebels zur Nahrungsfreigabe periodisch Elektroschocks ausgesetzt. Normalerweise wird nur bei Verabreichung von hohen Dosen an Anxiolytika die Reaktion auf die Bestrafung unterdrückt. Bei einer Gruppe von Ratten, die eine Dosis ab 3 mg/kg p.o. von (+)-1-lsopropylamino-3-[o-(pyrrol-1-yl)-phenoxy]-2-propanol erhalten haben, reagieren bereits ab etwa 80 % der Versuchstiere mit einem markanten Anstieg der Hebelbedienungshäufigkeit während der Schockphase.
Bei einer Gruppe von 29 Ratten, die eine Dosis von 20 mg/kg p.o. von 1-lsopropylamino-3-[o-(pyrrol-1-yl)-phenoxy]-2-propanol erhalten haben, reagieren bereits 50 % der Versuchstiere mit einem markanten Anstieg der Hebelbedienungshäufigkeit während der Schockphase, wobei der Anstieg bei einzelnen Tieren 300 % betrug.

[2] = Social conflict test after Jaekel (rank hierarchy); type: in vivo, Rhesusaffen
Excerpt: Insbesondere konnten signifikante anxiolytische Effekte bei Verabreichung des Wirkstoffs in sozialen Konfliktsituationen bei Rhesusaffen festgestellt werden. Die experimentalle Grundlage für diesen Sozialkonflikt-Test analog J. Jaekel in Biologische Psychiatrie (Forschungsergebnisse), W. Kemp (Hrsg.), Springer Verlag, Heidelberg, 1986, ist die hierarchische Rangordnung bei Rhesusaffen. Der relative Rangstatus eines Tieres ist der bestimmende Faktor für interindividuelle Kommunikation, z.B. für Aggression oder wechselseitiges soziales Putzen. Normalerweise werden Tiere mit geringem Rangstatus von höher gestellten Grupenmitgliedern unterdrückt. Diese unterdrückten Tiere ziehen sich in eine soziale Isolierung zurück und vermeiden ängstlich jeden Sozialkontakt. Wiederholte Wirkstoffgaben in Dosen von 0,2 mg/kg p.o. bei Gruppen von 5 bzw. […] Diese Effekte werden als deutliche Anxiolyse angesehen.
Insbesondere konnten signifikante anxiolytische Effekte bei Verabreichung des Wirkstoffs in sozialen Konfliktsituationen bei Rhesusaffen im oben beschriebenen Sozialkonflikt-Test nach Jaekel festgestellt werden. […] Ebenso nahmen sie aktiv Kontakt auf und wurden zu Partnern beim Pflegen, obwohl sie vorher niemals Pflegepartner waren. Diese Effekte wurden sowohl bei Gruppen mit hohem Niveau an Sozialkontakten als auch bei Gruppen mit wenig Pflegepartnerschaften beobachtet. […] Wie zu erwarten wurde dieses ausgeprägte anxiolytische Profil bei den Standard-Beta-Rezeptoren-Blockern Oxprenolol nicht und bei Propanolol in weitaus geringerem Masse erst bei Beta-Rezeptoren blockierenden Dosierungen festgestellt. Dagegen weist das Racemat diesen Effekt in nicht ß-blockierend wirkenden Dosierungen auf.

[3] = Delayed-Matching-to-Sample test after Harlow, double-blind against placebo; type: in vivo, Rhesusaffen
Excerpt: In Testmodellen an Rhesusaffen sowie an Ratten konnten weiterhin eine zusätzliche nootrope und antidepressive Wirkungskomponente festgestellt werden. […] F. Harlow et al., J. Comp. Physiol. Psychol. […] Dieser bedeutet diejenige Zeitverzögerung in Sekunden, nach der ein Affe einen Diskriminationserfolg von < 75 % hat. Weiterhin konnten die Vorzögerungszeiten für den Defizitbereich um durchschnittlich 20 Sekunden erhöht werden. Neben diesen nootropen Effekten konnten In diesem Test auch antidepressive Eigenschaften beobachtet werden. […] Die nootrope bzw. antidepressive Wirkungskomponente konnten ebenfalls bei Untersuchungen mit Ratten manifestiert werden. So wurden in einem komplizierten Tieflabyrinth analog dem Modell von J.B. Watson, Animal Education, Contrib. Psychol. Lab. Univ.

[4] = Complicated deep maze after Watson; type: in vivo, Ratten
Excerpt: In Testmodellen an Rhesusaffen sowie an Ratten konnten weiterhin eine zusätzliche nootrope und antidepressive Wirkungskomponente festgestellt werden. So bewirkte (+)-1-isopropylamino-3-[o-(pyrrol-1-yl)-phenoxy]-2-propanol in einer Doppelblindstudie bei Rhesusaffen gegen Placebo im "Delayed-Matchingto-Sample-Test" (Zeit-verzögerte-Wahl-nach-Muster) gemäss der Methodik von H. F. Harlow et al., J. Comp. Physiol. Psychol. […] Dieser bedeutet diejenige Zeitverzögerung in Sekunden, nach der ein Affe einen Diskriminationserfolg von < 75 % hat. Weiterhin konnten die Vorzögerungszeiten für den Defizitbereich um durchschnittlich 20 Sekunden erhöht werden. Neben diesen nootropen Effekten konnten In diesem Test auch antidepressive Eigenschaften beobachtet werden. […] Die nootrope bzw. antidepressive Wirkungskomponente konnten ebenfalls bei Untersuchungen mit Ratten manifestiert werden. So wurden in einem komplizierten Tieflabyrinth analog dem Modell von J.B. Watson, Animal Education, Contrib. Psychol. Lab. Univ.

[5] = Inhibition of hyperactivity of rats kept in isolation (locomotor and exploratory behaviour, after Weinstock); type: in vivo, Ratten; details: isolated rats
Procedure: Das charakterische anxiolytische Profil von 1-Isopropylamino-3-[o-(pyrrol-1-yl)-phenoxyj-2-propanol ergibt sich beispielsweise aus der Hemmung der Hyperaktivität von Ratten, die in Isolation gehalten werden, gemessen an ihrem lokomotorischen und exploratorischen Verhalten, wobei maximale Effekte bei einer Dosierung von 0,01-0,1 mg/kg p.o. erzielt werden [analog der Methodik von R. Weinstock et al., Psychopharmacologia 30, 241ff. (1973). Die Hyperaktivität von isoliert gehaltenen Ratten konnte dagegen im Falle des Propranolols erste bei einer Dosis von 0,3 mg/kg p.o. maximal gehemmt werden.

[6] = tested on: präsynaptischen Serotonin-1 B-Rezeptors (5-HTIB); assay: Antagonism at the presynaptic serotonin 1B receptor; details: for Selektivität (5-HT1B gegenüber 5-HT1A): compared with the racemate
[7] = Three-centre double-blind study in inpatients; type: in vivo, Menschen
Excerpt: Ueberraschend ist also die Tatsache, dass das anxiolytische Profil dieses Wirkstoffs auch bei nicht-betarezeptorenblockierend wirkenden Dosierungen sowohl im Tiermodell als auch am Menschen überaus ausgeprägt ist. Letzteres bestätigen Untersuchungen an stationären Patienten.
Entsprechendes ist bei der Verwendung des (+)-Enantiomeren zu erwarten.

[8] = tested on: stratialer Dopamin-Rezeptoren; assay: In vivo 3H-spiperone binding screening model after Bischoff; parameters: species or system Ratten; details: rats
Excerpt: Ferner bewirkt (+)-1-Isopropylamino-3-[o-(pyrrol-1-yl)-phenoxy]-2-propanol an Ratten Im Screening-Modell nach S. Bischoff et al., Europ.

[9] = repeated doses of 0,1-0,3 mg/kg p.o., groups of 7 monkeys
[10] = repeated doses of 0,2 mg/kg p.o., groups of 5 or 7 monkeys

## CC(C)NCC(O)COc1ccccc1-n1cccc1 (racemic) [1-Isopropylamino-3-[o-(pyrrol-1-yl)-phenoxy]-2-propanol]
[1]; group of 29 rats, 20 mg/kg p.o.
  Versuchstiere mit einem markanten Anstieg der Hebelbedienungshäufigkeit während der Schockphase: 50%
[1]; rats, 20 mg/kg p.o., shock phase
  Anstieg der Hebelbedienungshäufigkeit bei einzelnen Tieren: 300%
[1]; rats
  anxiolytische Wirkung im Geller-Test: starkes Anxiolytikum
[2]; [9]
  Sozialkontakte der rangniedrigsten Affen: Zunahme der Sozialkontakte
  ängstliches Verhaltensmuster der Affen, die in der Rangordnung am niedrigsten eingeordnet sind: signifikanten Reduktion des ängstlichen Verhaltensmuster
[3]; racemate, at the doses used
  nootrope und antidepressive Eigenschaften: keine aussagefähigen Beobachtungen
[4]; racemate, at the doses used
  nootrope und antidepressive Eigenschaften: keine aussagefähigen Beobachtungen
[5]
  Dosierung, bei der maximale Effekte (Hemmung der Hyperaktivität) erzielt werden: 0,01-0,1 mg/kg p.o.
[6]
  Antagonismus am präsynaptischen Serotonin-1 B-Rezeptor: potenter selektiver Antagonist
[7]; humans, low daily doses such as 2 mg and 4 mg p.o.
  cardiovaskuläre Effekte (ß-Blockade): keine cardiovaskulären Effekte
[7]; more than 100 inpatients, daily dose 2 mg p.o. compared with daily dose 4 mg p.o.
  anxiolytische Effekte: signifikante, mindestens ebenso potente anxiolytische Effekte

## CC(C)NCC(O)COc1ccccc1-n1cccc1 (single isomer, unassigned; (+)) [(+)-1-Isopropylamino-3-[o-(pyrrol-1-yl)-phenoxy]-2-propanol]
[1]; rats, dose from 3 mg/kg p.o.
  Versuchstiere mit einem markanten Anstieg der Hebelbedienungshäufigkeit während der Schockphase: ~80%
[1]; rats
  anxiolytische Wirkung im Geller-Test: starkes Anxiolytikum
[2]; [10]
  Sozialkontakte der rangniedrigsten Affen: nahmen sie aktiv soziale Kontakte auf
  ängstliches Verhaltensmuster der Affen, die in der Rangordnung am niedrigsten eingeordnet sind: signifikanten Reduktion
[3]; 1 mg/kg p.o., against placebo, deficit range = delay after which discrimination success is < 75 %
  Erfolgsrate im Defizitbereich: signifikant erhöhte Erfolgsrate
[3]; rhesus monkeys
  Motivation und Antrieb (antidepressive Eigenschaften): deutliche Motivations-und Antriebssteigerungen
[3]; rhesus monkeys, average increase
  Erhöhung der Vorzögerungszeiten für den Defizitbereich: 20 Sekunden
[4]; rats
  Orientierungsleistungen (Fehlerquote; nootrope Wirkung): deutliche Verbesserung der Orientierungsleistungen
[4]; rats, compared with placebo animals
  Laufzeiten vom Start zum belohnten Ziel: signifikant verkürzten Laufzeiten
[8]
  ^3H-Splperon-Bindung stratialer Dopamin-Rezeptoren: dosisabhängig Erhöhungen
[7]; expected for the (+)-enantiomer, not tested
  cardiovaskuläre Effekte (ß-Blockade): Entsprechendes

## C=CCOc1ccccc1OCC(O)CNC(C)C (stereo not shown) [Oxprenolol, reference compound]
[2]; 0,3-3,0 mg/kg p.o.
  Sozialkontakte von Affen mit geringer Rangordnung: keine Steigerung der Sozialkontakte
[6]
  Selektivität (5-HT1B gegenüber 5-HT1A): weniger selektiv

## CC(C)NCC(O)COc1cccc2ccccc12 (stereo not shown) [Propranolol, reference compound]
[1]; rats, 20 mg/kg p.o.
  Verhaltensänderung im Fussschocktest: keiner signifikanten Verhaltensänderung
[2]; 0,5-10,0 mg/kg p.o.
  Sozialkontakte der Rhesusaffen mit niedrigem Rangstatus: relativ wenig beeinflusst
[5]
  Dosierung, bei der maximale Effekte (Hemmung der Hyperaktivität) erzielt werden: 0,3 mg/kg p.o.
[6]
  Selektivität (5-HT1B gegenüber 5-HT1A): weniger selektiv
